Experimental data from the NIST ThermoML archive (doi:10.1021/je3010535).
Where “and” joins values, the source holds several entries; their conditions need not be identical. Identical values can stand only once. ± gives the expanded uncertainty stated by the source.

How the values were obtained:
[1] = Henry's Law constant (molality scale); of the first substance listed, at infinite dilution; mn = molality of the nth substance listed, in mol/kg; conditions: Liquid, Chromatography, m1 = 0
[2] = Henry's Law constant (molality scale); of the first substance listed, at infinite dilution; xn = mol fraction of the nth substance listed; conditions: Liquid, Chromatography, x1 = 0

| Henry's Law constant ([1]; 333.15 K) [kPa·kg/mol] | Compound | Henry's Law constant ([1]; 274.15 K) [kPa·kg/mol] | Henry's Law constant ([1]; 294.65 K) | Henry's Law constant ([1]; 296.15 K) [kPa·kg/mol] | Henry's Law constant ([1]; 310.15 K) [kPa·kg/mol] | Henry's Law constant ([1]; 326.15 K) [kPa·kg/mol] | Henry's Law constant ([1]; 331.15 K) [kPa·kg/mol] | Henry's Law constant ([1]; 320.15 K) [kPa·kg/mol] | Henry's Law constant ([1]; 313.15 K) [kPa·kg/mol] | Henry's Law constant ([2]; 274.15 K) [kPa·kg/mol] | Henry's Law constant ([2]; 294.65 K) | Henry's Law constant ([2]; 296.15 K) [kPa·kg/mol] | Henry's Law constant ([2]; 310.15 K) [kPa·kg/mol] | Henry's Law constant ([2]; 320.15 K) [kPa·kg/mol] | Henry's Law constant ([2]; 331.15 K) [kPa·kg/mol] | Henry's Law constant ([2]; 313.15 K) [kPa·kg/mol] | Henry's Law constant ([2]; 326.15 K) [kPa·kg/mol] |
| --- | --- | --- | --- | --- | --- | --- | --- | --- | --- | --- | --- | --- | --- | --- | --- | --- | --- |
|  | ClCC(Cl)(Cl)Cl [1,1,1,2-tetrachloroethane] + O | 60.3 ± 18 | 184 kPa·kg/mol and 168 kPa·kg/mol | 199 ± 60 | 388 ± 120 | 832 ± 250 | 1090 ± 330 |  |  |  |  |  |  |  |  |  |  |
|  | ClCC(Cl)Cl [1,1,2-trichloroethane] + O | 16.9 ± 5.1 | 62 kPa·kg/mol and 60.4 kPa·kg/mol | 65 ± 20 | 148 ± 44 |  | 419 ± 130 | 263 ± 79 |  |  |  |  |  |  |  |  |  |
|  | Clc1ccc(Cl)c(Cl)c1 [1,2,4-trichlorobenzene] + O | 26.9 ± 11 | 75.2 kPa·kg/mol and 81.4 kPa·kg/mol | 83.2 ± 33 | 148 ± 59 | 730 ± 290 | 425 ± 170 | 260 ± 100 |  |  |  |  |  |  |  |  |  |
|  | Cc1ccc(C)c(C)c1 [1,2,4-trimethylbenzene] + O | 82.9 ± 33 | 235 kPa·kg/mol and 255 kPa·kg/mol | 292 ± 120 | 497 ± 200 | 1770 ± 710 | 1390 ± 550 |  | 974 ± 390 |  |  |  |  |  |  |  |  |
|  | BrCCBr [1,2-dibromoethane] + O | 12.7 ± 3.8 | 54.1 kPa·kg/mol and 41.2 kPa·kg/mol | 57.8 ± 17 | 130 ± 39 |  | 333 ± 100 | 218 ± 66 |  |  |  |  |  |  |  |  |  |
|  | Cc1ccccc1C [1,2-dimethylbenzene] + O | 96.1 ± 29 | 281 kPa·kg/mol and 291 kPa·kg/mol | 318 ± 95 | 321 ± 96 | 1400 ± 420 | 1360 ± 410 |  | 781 ± 230 |  |  |  |  |  |  |  |  |
|  | Clc1cccc(Cl)c1 [1,3-dichlorobenzene] + O | 50.3 ± 20 | 160 kPa·kg/mol and 164 kPa·kg/mol | 185 ± 74 | 309 ± 120 | 967 ± 390 | 768 ± 310 | 519 ± 210 | 552 ± 220 |  |  |  |  |  |  |  |  |
|  | ClCCCCl [1,3-dichloropropane] + O | 18.8 ± 5.6 | 65 kPa·kg/mol and 65.9 kPa·kg/mol | 70.6 ± 21 | 156 ± 47 |  | 421 ± 130 | 287 ± 86 |  |  |  |  |  |  |  |  |  |
|  | Cc1cccc(C)c1 [1,3-dimethylbenzene] + O | 147 ± 59 | 381 kPa·kg/mol and 439 kPa·kg/mol | 457 ± 180 |  | 2090 ± 840 | 1810 ± 730 |  | 1170 ± 470 |  |  |  |  |  |  |  |  |
|  | Clc1ccc(Cl)cc1 [1,4-dichlorobenzene] + O | 52.8 ± 21 | 136 kPa·kg/mol and 149 kPa·kg/mol | 160 ± 64 | 263 ± 110 | 804 ± 320 | 686 ± 270 | 451 ± 180 | 476 ± 190 |  |  |  |  |  |  |  |  |
|  | Cc1ccc(C)cc1 [1,4-dimethylbenzene] + O | 147 ± 59 | 381 kPa·kg/mol and 439 kPa·kg/mol | 457 ± 180 |  | 2090 ± 840 | 1810 ± 730 |  | 1170 ± 470 |  |  |  |  |  |  |  |  |
| 136 ± 41 | CCCCC(C)=O [2-hexanone] + O | 0.551 ± 0.17 | 4.89 kPa·kg/mol and 5.91 kPa·kg/mol | 7.07 ± 2.1 | 17.9 ± 5.4 |  | 122 ± 36 | 48.2 ± 14 |  |  |  |  |  |  |  |  |  |
|  | CC(C)(C)c1ccccc1 [(1,1-dimethylethyl)benzene] + O | 189 ± 75 | 448 kPa·kg/mol and 554 kPa·kg/mol | 562 ± 220 | 1020 ± 410 | 3330 ± 1300 | 2160 ± 860 |  | 2070 ± 830 |  |  |  |  |  |  |  |  |
|  | CCC(C)c1ccccc1 (stereo not given) [(1-methylpropyl)benzene] + O | 251 |  | 634 | 1100 | 4160 | 2310 |  | 2690 |  |  |  |  |  |  |  |  |
|  | Cl/C=C/CCl [(E)-1,3-dichloro-1-propene] + O | 52.9 ± 16 | 144 kPa·kg/mol | 153 ± 46 | 300 ± 90 |  | 929 ± 280 |  |  |  |  |  |  |  |  |  |  |
|  | Cl/C=C\CCl [(Z)-1,3-dichloro-1-propene] + O | 25.3 ± 7.6 | 87.5 kPa·kg/mol and 89.1 kPa·kg/mol | 94.4 ± 28 | 202 ± 61 |  | 657 ± 200 | 386 ± 120 |  |  |  |  |  |  |  |  |  |
|  | c1ccccc1 [benzene] + O | 193 ± 58 | 480 kPa·kg/mol and 474 kPa·kg/mol | 528 ± 160 | 1190 ± 360 | 1410 ± 420 | 2240 ± 670 |  | 832 ± 250 |  |  |  |  |  |  |  |  |
|  | Clc1ccccc1 [chlorobenzene] + O | 83.7 ± 25 | 246 kPa·kg/mol and 238 kPa·kg/mol | 270 ± 81 | 423 ± 130 | 1050 ± 310 | 1180 ± 350 |  | 532 ± 160 |  |  |  |  |  |  |  |  |
|  | ClC(Br)Br [chlorodibromomethane] + O | 22.7 ± 6.8 | 80.5 kPa·kg/mol and 82.2 kPa·kg/mol | 85.7 ± 26 | 179 ± 54 |  | 536 ± 160 | 327 ± 98 |  |  |  |  |  |  |  |  |  |
|  | CCc1ccccc1 [ethylbenzene] + O | 162 |  | 533 |  | 2320 | 1830 |  | 1290 |  |  |  |  |  |  |  |  |
|  | CC(C)c1ccccc1 [isopropylbenzene] + O | 212 ± 64 | 536 kPa·kg/mol and 588 kPa·kg/mol | 622 ± 190 | 1380 ± 410 | 3260 ± 980 | 3130 ± 940 |  | 1960 ± 590 |  |  |  |  |  |  |  |  |
|  | CC1CCCCC1 [methylcyclohexane] + O | 1060 ± 320 | 2350 kPa·kg/mol and 2300 kPa·kg/mol | 2010 ± 600 |  | 15600 ± 4700 |  |  | 9440 ± 2800 |  |  |  |  |  |  |  |  |
|  | C=Cc1ccccc1 [styrene] + O | 62.4 ± 19 | 196 kPa·kg/mol | 224 ± 67 | 382 ± 110 | 925 ± 280 | 972 ± 290 |  | 507 ± 150 |  |  |  |  |  |  |  |  |
|  | ClC(Cl)=C(Cl)Cl [tetrachloroethene] + O | 320 ± 130 | 755 kPa·kg/mol and 879 kPa·kg/mol | 813 ± 330 | 2470 ± 990 | 2750 ± 1100 | 5600 ± 2200 |  | 2240 ± 900 |  |  |  |  |  |  |  |  |
|  | Cc1ccccc1 [toluene] + O | 164 ± 49 | 459 kPa·kg/mol and 470 kPa·kg/mol | 489 ± 150 | 316 ± 95 | 1840 ± 550 | 3030 ± 910 |  | 982 ± 290 |  |  |  |  |  |  |  |  |
|  | BrC(Br)Br [tribromomethane] + O |  |  |  |  |  |  |  |  | 7.47 ± 2.2 | 46.4 kPa·kg/mol and 29.9 kPa·kg/mol | 50.9 ± 15 | 120 ± 36 | 200 ± 60 | 328 ± 98 |  |  |
|  | ClC=C(Cl)Cl [trichloroethene] + O |  |  |  |  |  |  |  |  | 249 ± 75 | 711 kPa·kg/mol and 721 kPa·kg/mol | 691 ± 210 | 2110 ± 630 |  | 4620 ± 1400 | 1670 ± 500 | 2630 ± 790 |
|  | FC(Cl)(Cl)Cl [trichlorofluoromethane] + O |  |  |  |  |  |  |  |  | 987 ± 300 |  |  |  |  |  | 8110 ± 2400 | 15600 ± 4700 |
|  | ClC(Cl)Cl [trichloromethane] + O |  |  |  |  |  |  |  |  | 107 ± 32 | 301 kPa·kg/mol and 324 kPa·kg/mol | 363 ± 110 | 782 ± 230 |  | 1770 ± 530 | 628 ± 190 | 1170 ± 350 |
